Data reported in publication PMC9823097, “Dysregulation of PRMT5 in chronic lymphocytic leukemia promotes progression with high risk of Richter’s transformation” (Nature Communications, 2023).
Like-named read-outs stand apart in the source and are kept apart here.

Key:
[1] = Pharmacokinetics in mice (clearance, oral bioavailability, AUC); format: in vivo
[2] = Pharmacokinetics in rats (clearance, oral bioavailability); format: in vivo
RL = test: Anti-proliferative activity, MTS assay, RL; format: cell-based; details: Homo sapiens, DLBCL, read-out: PRT382 IC50 (anti-proliferative)
Protocol: (§1) Cell proliferation was assessed via MTS (3-[4,5-dimethylthiazol-2-yl]-5-[3-carboxymethoxyphenyl]-2-[4-sulfophenyl]-2H-tetrazolium) assay (Sigma), using the tetrazolium dye […]. Cell apoptosis was evaluated by Annexin V-FITC or PE and propidium iodide (PI) staining using FC500 cytometer (Beckman-Coulter, Indianapolis, IN) following the manufacturer’s procedure (BD Pharmingen, Billerica, MA)[55]. For cell cycle analysis, cells were fixed with cold ethanol overnight and then stained before analysis with 30 μg/mL propidium iodide (Invitrogen) and 200 μg/mL RNase (Sigma-Aldrich) in 0.1 % v/v Triton X-100 (Sigma-Aldrich). Cell cycle data analysis was performed using ModFit LT software (Verity Software House, Topsham, ME).

[3] = tested on: leukemia and lymphoma cell lines; test: Proliferation of a panel of leukemia and B-lymphoma cell lines, 72 h, MTS assay; format: cell-based; details: for IC50: CCMCL-1, JVM-2, U-2932, RL, and KARPAS-422, read-out: Anti-proliferative IC50 values, range over cell lines
Protocol: as §1

HG3 cells = test: Cell growth curves over 12 days, HG3; format: cell-based
Protocol: Live cells/mL were counted on days 3, 6, 10, and 12. […] The split factor was calculated at indicated time points by dividing the counted cells/mL by 3E5. Cell growth was extrapolated over time by multiplying the subsequent cell count by the previous split factor. Cell growth is plotted as fold change relative to DMSO-treated cells.

[4] = HG3, continuous exposure over 12 days

For CON=c1nc[nH]c2c1ccn2[C@@H]1O[C@H]([C@H](O)c2ccc(Cl)c(Cl)c2)[C@@H](O)[C@H]1O.Cl [PRT382, (2 R,3 S,4 R,5 R)-2-[(R)-(3,4-dichlorophenyl)-hydroxy-methyl]-5-[(4Z)-4-methoxyimino-1H-pyrrolo[2,3-d]pyrimidin-7-yl]tetrahydrofuran-3,4-diol hydrochloride], the clearance [1] was “low”, the bioavailability ([1]; mouse, in vivo, po, read-out: oral bioavailability (F%)) was 70 to 80% and the clearance [2] was “low”. The bioavailability ([2]; rat, in vivo, po, read-out: oral bioavailability (F%)) was 70 to 80%, the IC50 (RL) was 16 nM and the “proliferation relative to DMSO (=1), Figure 6F” value (“proliferation relative to DMSO” below) ([3]; CCMCL, 1e-9 M) was 0.94. For the same compound, the “proliferation relative to DMSO” value ([3]; CCMCL, 1e-8 M) was 0.93, the “proliferation relative to DMSO” value ([3]; CCMCL, 1e-7 M) was 0.55 and the “proliferation relative to DMSO” value ([3]; CCMCL, 1e-6 M) was 0.13. For the same compound, the “proliferation relative to DMSO” value ([3]; CCMCL, 1e-5 M) was 0.12, the IC50 ([3]; earlier manuscript text quoted in the peer review file) was 10 to 100 nM and the IC50 [3] was 10 to 500 nM. The “proliferation relative to DMSO” value ([3]; Jeko, 1e-9 M) was 1, the “proliferation relative to DMSO” value ([3]; Jeko, 1e-8 M) was 0.98 and the “proliferation relative to DMSO” value ([3]; Jeko, 1e-7 M) was 0.96. For the same compound, the “proliferation relative to DMSO” value ([3]; Jeko, 1e-6 M) was 0.13, the “proliferation relative to DMSO” value ([3]; Jeko, 1e-5 M) was 0.14 and the “proliferation relative to DMSO” value ([3]; Pfeiffer, 1e-9 M) was 0.99. For the same compound, the “proliferation relative to DMSO” value ([3]; Pfeiffer, 1e-8 M) was 1, the “proliferation relative to DMSO” value ([3]; Pfeiffer, 1e-7 M) was 0.76 and the “proliferation relative to DMSO” value ([3]; Pfeiffer, 1e-6 M) was 0.18. For the same compound, the “proliferation relative to DMSO” value ([3]; Pfeiffer, 1e-5 M) was 0.22, the “proliferation relative to DMSO” value ([3]; SU-DHL-4, 1e-9 M) was 1 and the “proliferation relative to DMSO” value ([3]; SU-DHL-4, 1e-8 M) was 1. The “proliferation relative to DMSO” value ([3]; SU-DHL-4, 1e-7 M) was 0.79, the “proliferation relative to DMSO” value ([3]; SU-DHL-4, 1e-6 M) was 0.13 and the “proliferation relative to DMSO” value ([3]; SU-DHL-4, 1e-5 M) was 0.15. For the same compound, the “anti-proliferative potency compared to JNJ-64619178, LLY-283, and PF-06855800” value (HG3 cells; HG3) was “similar-to-reduced”, the “Rep 1 Live Cells [Fold Change]” value (HG3 cells; HG3, 1 nM, day 0) was 1 Fold Change and the “Rep 2 Live Cells [Fold Change]” value (HG3 cells; HG3, 1 nM, day 0) was 1 Fold Change. For the same compound, the “Rep 3 Live Cells [Fold Change]” value (HG3 cells; HG3, 1 nM, day 0) was 1 Fold Change, the “Rep 1 Live Cells [Fold Change]” value (HG3 cells; HG3, 1 nM, day 3) was 5.95 Fold Change and the “Rep 2 Live Cells [Fold Change]” value (HG3 cells; HG3, 1 nM, day 3) was 7.45 Fold Change. The “Rep 3 Live Cells [Fold Change]” value (HG3 cells; HG3, 1 nM, day 3) was 5.95 Fold Change, the “Rep 1 Live Cells [Fold Change]” value (HG3 cells; HG3, 1 nM, day 6) was 46.5092 Fold Change and the “Rep 2 Live Cells [Fold Change]” value (HG3 cells; HG3, 1 nM, day 6) was 44.5758 Fold Change. For the same compound, the “Rep 3 Live Cells [Fold Change]” value (HG3 cells; HG3, 1 nM, day 6) was 27.1717 Fold Change, the “Rep 1 Live Cells [Fold Change]” value (HG3 cells; HG3, 1 nM, day 10) was 425.559 Fold Change and the “Rep 2 Live Cells [Fold Change]” value (HG3 cells; HG3, 1 nM, day 10) was 463.589 Fold Change. For the same compound, the “Rep 3 Live Cells [Fold Change]” value (HG3 cells; HG3, 1 nM, day 10) was 237.752 Fold Change, the “Rep 1 Live Cells [Fold Change]” value (HG3 cells; HG3, 1 nM, day 12) was 1418.53 Fold Change and the “Rep 2 Live Cells [Fold Change]” value (HG3 cells; HG3, 1 nM, day 12) was 1486.57 Fold Change. For the same compound, the “Rep 3 Live Cells [Fold Change]” value (HG3 cells; HG3, 1 nM, day 12) was 1077.81 Fold Change, the “Rep 1 Live Cells [Fold Change]” value (HG3 cells; HG3, 10 nM, day 0) was 1 Fold Change and the “Rep 2 Live Cells [Fold Change]” value (HG3 cells; HG3, 10 nM, day 0) was 1 Fold Change. For the same compound, the “Rep 3 Live Cells [Fold Change]” value (HG3 cells; HG3, 10 nM, day 0) was 1 Fold Change, the “Rep 1 Live Cells [Fold Change]” value (HG3 cells; HG3, 10 nM, day 3) was 6.983 Fold Change and the “Rep 2 Live Cells [Fold Change]” value (HG3 cells; HG3, 10 nM, day 3) was 6.833 Fold Change. For the same compound, the “Rep 3 Live Cells [Fold Change]” value (HG3 cells; HG3, 10 nM, day 3) was 6.567 Fold Change, the “Rep 1 Live Cells [Fold Change]” value (HG3 cells; HG3, 10 nM, day 6) was 48.6506 Fold Change and the “Rep 2 Live Cells [Fold Change]” value (HG3 cells; HG3, 10 nM, day 6) was 58.5389 Fold Change. For the same compound, the “Rep 3 Live Cells [Fold Change]” value (HG3 cells; HG3, 10 nM, day 6) was 42.7928 Fold Change, the “Rep 1 Live Cells [Fold Change]” value (HG3 cells; HG3, 10 nM, day 10) was 471.91 Fold Change and the “Rep 2 Live Cells [Fold Change]” value (HG3 cells; HG3, 10 nM, day 10) was 680.515 Fold Change. For the same compound, the “Rep 3 Live Cells [Fold Change]” value (HG3 cells; HG3, 10 nM, day 10) was 419.369 Fold Change, the “Rep 1 Live Cells [Fold Change]” value (HG3 cells; HG3, 10 nM, day 12) was 1691.01 Fold Change and the “Rep 2 Live Cells [Fold Change]” value (HG3 cells; HG3, 10 nM, day 12) was 2381.8 Fold Change. The “Rep 3 Live Cells [Fold Change]” value (HG3 cells; HG3, 10 nM, day 12) was 2411.37 Fold Change, the “Rep 1 Live Cells [Fold Change]” value (HG3 cells; HG3, 100 nM, day 0) was 1 Fold Change and the “Rep 2 Live Cells [Fold Change]” value (HG3 cells; HG3, 100 nM, day 0) was 1 Fold Change. For the same compound, the “Rep 3 Live Cells [Fold Change]” value (HG3 cells; HG3, 100 nM, day 0) was 1 Fold Change, the “Rep 1 Live Cells [Fold Change]” value (HG3 cells; HG3, 100 nM, day 3) was 3.433 Fold Change and the “Rep 2 Live Cells [Fold Change]” value (HG3 cells; HG3, 100 nM, day 3) was 6.117 Fold Change. For the same compound, the “Rep 3 Live Cells [Fold Change]” value (HG3 cells; HG3, 100 nM, day 3) was 4.417 Fold Change, the “Rep 1 Live Cells [Fold Change]” value (HG3 cells; HG3, 100 nM, day 6) was 12.7033 Fold Change and the “Rep 2 Live Cells [Fold Change]” value (HG3 cells; HG3, 100 nM, day 6) was 20.7661 Fold Change. The “Rep 3 Live Cells [Fold Change]” value (HG3 cells; HG3, 100 nM, day 6) was 13.7726 Fold Change, the “Rep 1 Live Cells [Fold Change]” value (HG3 cells; HG3, 100 nM, day 10) was 31.282 Fold Change and the “Rep 2 Live Cells [Fold Change]” value (HG3 cells; HG3, 100 nM, day 10) was 112.137 Fold Change. For the same compound, the “Rep 3 Live Cells [Fold Change]” value (HG3 cells; HG3, 100 nM, day 10) was 30.472 Fold Change, the “Rep 1 Live Cells [Fold Change]” value (HG3 cells; HG3, 100 nM, day 12) was 66.0571 Fold Change and the “Rep 2 Live Cells [Fold Change]” value (HG3 cells; HG3, 100 nM, day 12) was 233.431 Fold Change. The “Rep 3 Live Cells [Fold Change]” value (HG3 cells; HG3, 100 nM, day 12) was 63.4325 Fold Change, the “Rep 1 Live Cells [Fold Change]” value (HG3 cells; HG3, 1 µM, day 0) was 1 Fold Change and the “Rep 2 Live Cells [Fold Change]” value (HG3 cells; HG3, 1 µM, day 0) was 1 Fold Change. The “Rep 3 Live Cells [Fold Change]” value (HG3 cells; HG3, 1 µM, day 0) was 1 Fold Change, the “Rep 1 Live Cells [Fold Change]” value (HG3 cells; HG3, 1 µM, day 3) was 3.05 Fold Change and the “Rep 2 Live Cells [Fold Change]” value (HG3 cells; HG3, 1 µM, day 3) was 6.15 Fold Change. The “Rep 3 Live Cells [Fold Change]” value (HG3 cells; HG3, 1 µM, day 3) was 3.933 Fold Change, the “Rep 1 Live Cells [Fold Change]” value (HG3 cells; HG3, 1 µM, day 6) was 3.162 Fold Change and the “Rep 2 Live Cells [Fold Change]” value (HG3 cells; HG3, 1 µM, day 6) was 4.9815 Fold Change. For the same compound, the “Rep 3 Live Cells [Fold Change]” value (HG3 cells; HG3, 1 µM, day 6) was 4.615 Fold Change, the “Rep 1 Live Cells [Fold Change]” value (HG3 cells; HG3, 1 µM, day 10) was 2.64 Fold Change and the “Rep 2 Live Cells [Fold Change]” value (HG3 cells; HG3, 1 µM, day 10) was 3.873 Fold Change. For the same compound, the “Rep 3 Live Cells [Fold Change]” value (HG3 cells; HG3, 1 µM, day 10) was 1.218 Fold Change, the “Rep 1 Live Cells [Fold Change]” value (HG3 cells; HG3, 1 µM, day 12) was 1.11 Fold Change and the “Rep 2 Live Cells [Fold Change]” value (HG3 cells; HG3, 1 µM, day 12) was 5.3136 Fold Change. For the same compound, the “Rep 3 Live Cells [Fold Change]” value (HG3 cells; HG3, 1 µM, day 12) was 0.1619 Fold Change, the “dose at which growth inhibition begins” value (HG3 cells; [4]) was 100 nM and the “effect on growth potential (cell growth)” value (HG3 cells; [4]) was “time and dose-dependent growth inhibition”.
